Key:
[1] = tested on: CT DNA; assay: Fluorescence quantum yield in the presence of DNA; assay type: physicochemical; conditions: 1 μM in Tris-HCl buffer, saturated DNA; Rhodamine B as standard; mean of triplicate
Method: A saturated amount of CT DNA was added into the 1 μM compound C solution in Tris-HCl buffer to keep a maximum absorbance less than 0.1 as determined by a UV-Vis Spectrophotometer. Fluorescence intensities are measured at selected excitation wavelengths of 545 nm, 550 nm and 555 nm, respectively. For each compound, the determination is made in triplicate, the fluorescence quantum yield of each determination is calculated, and the mean value is taken. Using Rhodamine B as the standard (ΦF=0.97, methanol, 15° C.), the calculated fluorescence quantum yields in buffer solution of compound C in the presence of DNA is 0.73. The equipments used are a UV-Vis spectrophotometer (Hp8453) and a spectrofluorophotometer (PTI-700).
A saturated amount of DNA was added into the 1 μM reference compound M1 solution in Tris-HCl buffer to keep a maximum absorbance less than 0.1 as determined by a UV-Vis Spectrophotometer. Fluorescence intensities are measured at selected excitation wavelengths of 585 nm, 590 nm and 595 nm, respectively. For each compound, the determination is made in triplicate, the fluorescence quantum yield of each determination is calculated, and the mean value is taken. Using Rhodamine B as the standard (ΦF=0.97, methanol, 15° C.), the calculated fluorescence quantum yields in buffer solution of reference compound M1 in the presence of DNA is 0.16. […]

[2] = Photofading under iodine-tungsten lamp irradiation in Tris-HCl buffer; assay type: physicochemical; conditions: 5×10^−6 M in Tris-HCl 10 mM pH 7.4; 500 W iodine-tungsten lamp, 20 cm; after 6 h of radiation
Method: 5×10^−6M solutions of compounds C, D, E and reference compound M1 in Tris-HCl (10 mM, pH=7.4, same below) buffer were be sealed into the cuvettes respectively. To absorb short wavelength light (<400 nm), a trap of glass containing 50 g/L NaNO2 was set up between the cells and the lamp. In the other hand, NaNO2 solution can be used as a cold trap to keep the sample at room temperature. After the absorption of samples were monitored, solutions of the samples were irradiated with a 500 W iodine-tungsten lamp. The distance between the cells and the lamp was 20 cm. The irreversible bleaching of the dyes at the absorption peak was monitored as a function of time at 1 hour intervals. The equipment used is a UV-Vis spectrophotometer Lambda 8453.

[3] = tested on: living cells; assay: MTT cytotoxicity assay in living cells; assay type: cell-based; conditions: 6 h, serial concentrations 0, 1, 3, 5 μM
Method: The Compounds C, D, E and reference compound M1 at serial concentrations (0, 1, 3, and 5 μM) were added to cells counted in a confocal microscope dish for 6 h. Then MTT tetrazolium solution (100 μL of 0.5 mg/ml in PBS) was added to each well, and the cells further incubated for 2 h. Excess MTT tetrazolium solution was then carefully removed and the colored formazan was dissolved in dimethyl sulfoxide (DMSO). The absorbance was measured at 490 nm using a microplate reader to measure the toxicity of compound.

[4] = tested on: CT DNA; assay: Absorption and fluorescence emission spectra in the absence and presence of DNA in buffer; assay type: physicochemical; conditions: 2 μM in Tris-HCl buffer, absence and presence of saturated CT DNA; for maximum emission wavelength: excitation 550 nm
Method: 2 μM solutions of compounds C, D, and E in Tris-HCl (10 mM, pH=7.4, same below) buffer were be added into the cuvettes and determined its absorption respectively. The exited wavelength of the fluorescence spectra was 550 nm for all compounds. A saturated amount of CT DNA was added into the above solution, then the solution was determined its absorption respectively. The exited wavelength of the fluorescence spectra was 550 nm for all compounds. The equipments used are a UV-Vis spectrophotometer (Hp8453) and a spectrofluorophotometer (PTI-700). FIGS. 2, 3, and 4 are the absorption and fluorescence emission spectra of compounds C, D, and E in the absence and presence of DNA respectively in buffer solution respectively. […] Therefore, in confocal fluorescence image tests of compounds, the exited wavelength is selected 559 nm and the collected emission wavelength was 575-625 nm.

[5] = tested on: MCF7 cells; assay: Fluorescence imaging of live cells stained with dye; assay type: cell-based, human; conditions: 45 min, compound D 2 μM, M1 3 μM, confocal microscopy
Method: MCF7 cells (human breast adenocarcinoma cell line) were cultured in DEME medium supplemented with 10% fetal bovine serum at 37° C. in an atmosphere containing 5% CO2 for 24 h. For live cell imaging, compound D (2 μM) or reference compound M1 (3 μM) was added to cells for 45 min and washed with PBS (phosphate-buffered saline) three times. After replacement of the medium, cells were imaged using a confocal fluorescence microscope. […] The confocal laser scanning microscope is Olympus FV1000.

[6] = tested on: MCF7 cells; assay: Colocalization fluorescence imaging with commercial nucleic acid stain SYTO9; assay type: cell-based, human; conditions: compound E 2.0 μM 45 min after SYTO9 3.0 μM 45 min; λex=559 nm, λem=575-625 nm
Method: The cells were cultured as shown example 10, were first cultured with 3.0 μM of available commercial nucleic acid stain SYTO9 for 45 min, and then washed with PBS three times. Cells were then incubated with compound E (2.0 μM) for 45 min, and then washed with PBS three times. After replacement of DEME medium, cells were imaged using confocal fluorescence microscope.
FIG. 6a is the fluorescence image of SYTO 9 (λex=488 nm, λem=500 nm to 550 nm) and FIG. 6b is the fluorescence image of compound E (λex=559 nm, λem=575 nm to 625 nm). […] The equipment used is an Olympus FV1000 confocal laser scanning microscope.

[7] = tested on: CT DNA; conditions: methanol, 15° C.; cited from earlier work

Row | Compound | fluorescence quantum yield in the presence of DNA [1] | optical density remaining after radiation (photostability) [2] [%] | cytotoxicity in high concentration relative to M1 [3] | cytotoxicity in low concentrations [3] | maximum absorption wavelength [4] | maximum emission wavelength [4] | staining pattern in live cells [5] | subcellular regions stained (colocalization with SYTO9) [6] | fluorescence quantum yield of standard (ΦF) [7]
1 | CC[n+]1ccc(/C=C/C(C#N)=C2/Sc3ccccc3N2C)c2ccccc21.[I-] [Compound C] | 0.73 | 90 | less cytotoxic than reference compound M1 | low cytotoxicity | about 545 nm | about 610 nm |  |  | 
2 | CN1/C(=C(C#N)\C=C\c2cc[n+](CCO)c3ccccc23)Sc2cc(Cl)ccc21.Cl [Compound D] |  | 90 | less cytotoxic than reference compound M1 | low cytotoxicity | about 545 nm | about 610 nm | clear nucleolar staining as well as faint nucleus staining |  | 
3 | C=CCCN1/C(=C(C#N)\C=C\c2cc[n+](CC)c3cc(OC)ccc23)Sc2ccccc21.[I-] [Compound E] |  | 90 |  |  | about 545 nm | about 610 nm |  | nucleus and nucleolus | 
4 | CC[n+]1ccc(/C=C/C=C2/Sc3ccccc3N2C)c2ccccc21.[I-] [Compound M1, reference compound] | 0.16 | ~0 |  | low cytotoxicity |  |  | clear nucleolar staining as well as faint nucleus staining |  | 
5 | CCN(CC)c1ccc2c(-c3ccccc3C(=O)O)c3ccc(=[N+](CC)CC)cc-3oc2c1.[Cl-] [Rhodamine B] |  |  |  |  |  |  |  |  | 0.97
